In PMC3578427 (Journal of medicinal chemistry, 2011):
Counter-ions that a name gives are not always drawn.

Legend:
[1] = molecular target: T1, hA3 AR (Homo sapiens, UniProt P0DMS8)
T1 sequence (P0DMS8 1-318): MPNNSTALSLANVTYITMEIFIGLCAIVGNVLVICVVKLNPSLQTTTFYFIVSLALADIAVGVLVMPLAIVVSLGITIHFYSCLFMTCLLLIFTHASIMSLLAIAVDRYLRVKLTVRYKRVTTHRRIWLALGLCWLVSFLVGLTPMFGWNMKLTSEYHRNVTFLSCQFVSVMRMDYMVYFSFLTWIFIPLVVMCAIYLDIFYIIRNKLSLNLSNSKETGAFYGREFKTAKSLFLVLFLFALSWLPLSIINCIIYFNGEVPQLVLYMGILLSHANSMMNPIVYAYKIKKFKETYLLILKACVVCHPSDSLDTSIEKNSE

[2] = molecular target: T2, hA2B AR (Homo sapiens, UniProt P29275)
T2 sequence (P29275 1-332): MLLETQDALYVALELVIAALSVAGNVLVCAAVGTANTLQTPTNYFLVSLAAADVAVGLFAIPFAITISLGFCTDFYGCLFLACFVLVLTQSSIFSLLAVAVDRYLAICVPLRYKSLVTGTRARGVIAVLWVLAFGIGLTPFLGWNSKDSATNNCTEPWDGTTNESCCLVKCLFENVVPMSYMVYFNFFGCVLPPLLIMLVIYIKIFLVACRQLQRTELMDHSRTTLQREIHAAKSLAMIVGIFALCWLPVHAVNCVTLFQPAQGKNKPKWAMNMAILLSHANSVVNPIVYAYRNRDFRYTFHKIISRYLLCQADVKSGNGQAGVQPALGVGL

[3] = Water solubility; type: physicochemical
[4] = tested on: human (h) A2B AR; conditions: cited from earlier work

| SMILES | activity at hA2B AR in the functional assay [2] | other results |
| --- | --- | --- |
| CC(C)(C)OC(=O)NCCNc1nc(N)n2nc(-c3ccco3)nc2n1 [Compound 10, 7-Amino-5-[(2-tert-butyloxycarbonylamino)ethyl]-amino-2(2-furyl) 1,2,4-triazolo [1,5-a] 1,3,5-triazine] | – | Ki [1]: ~1 µM |
| Nc1nc(NC(=O)c2ccccc2)n2nc(-c3ccco3)nc2n1 [Compound 43, 5-amino-7-phenylcarbonylamino-2(2-furyl) 1,2,4-triazolo [1,5-a] 1,3,5-triazine trifluoroacetate] | poorly active | – |
| NCCOCCOCCNc1nc(N)n2nc(-c3ccco3)nc2n1.O=C(O)C(F)(F)F [Compound 20, 7-Amino-5-[(8-amino)triethylenoxy]-amino-2(2-furyl) 1,2,4-triazolo [1,5-a] 1,3,5-triazine trifluoroacetate] | – | solubility [3]: ≥ 10 mM |
| CC(C)(C)OC(=O)NCC1CCC(CNc2nc(N)n3nc(-c4ccco4)nc3n2)CC1 (stereo not drawn) [Compound 11, 7-Amino-5-[(4-tert-butyloxycarbonylaminomethyl)cyclohexylmethyl]-amino-2(2-furyl) 1,2,4-triazolo [1,5-a] 1,3,5-triazine] | poorly active | – |
| Nc1nc(NCCc2ccc(O)cc2)nc2nc(-c3ccco3)nn12 [ZM241385] | – | affinity at hA2B AR [4]: 28 nM |
| Nc1nc(N)n2nc(-c3ccco3)nc2n1 [Compound 41, 5,7-diamino-2(2-furyl) 1,2,4-triazolo [1,5-a] 1,3,5-triazine] | poorly active | – |
